# Measurements: paper PMC6149898, “GPCR Modulation of Thieno[2,3-b]pyridine Anti-Proliferative Agents” (Molecules : A Journal of Synthetic Chemistry and Natural …, 2017)
# What was measured:
# GPR109A = GPR109A (Homo sapiens, UniProt Q8TDS4); experiment: gpcrMAX PathHunter beta-arrestin
# HTR1E = HTR1E (Homo sapiens, UniProt P28566); experiment: gpcrMAX PathHunter beta-arrestin
# GPR92 = GPR92 (Homo sapiens, UniProt Q9H1C0); experiment: gpcrMAX PathHunter beta-arrestin
# CCR6 = CCR6 (Homo sapiens, UniProt P51684); experiment: gpcrMAX PathHunter beta-arrestin
# Sequence of CCR6 (P51684 whole entry): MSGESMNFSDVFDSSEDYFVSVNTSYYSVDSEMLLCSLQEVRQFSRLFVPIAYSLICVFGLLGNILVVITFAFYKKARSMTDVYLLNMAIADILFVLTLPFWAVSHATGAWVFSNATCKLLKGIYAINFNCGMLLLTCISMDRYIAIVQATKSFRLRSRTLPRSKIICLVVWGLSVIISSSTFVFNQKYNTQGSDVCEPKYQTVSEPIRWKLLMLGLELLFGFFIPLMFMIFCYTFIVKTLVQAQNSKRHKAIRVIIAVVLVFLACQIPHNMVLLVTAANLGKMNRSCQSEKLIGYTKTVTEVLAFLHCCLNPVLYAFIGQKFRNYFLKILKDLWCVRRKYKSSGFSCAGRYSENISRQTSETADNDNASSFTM
# CNS:SF-295 = test system: CNS:SF-295; set-up: method as in earlier work; settings: NCI-60 panel; ref [4],[5],[6],[7]; cited from earlier work
# NPY2R = NPY2R (Homo sapiens, UniProt P49146); experiment: gpcrMAX PathHunter beta-arrestin
# CALCR-RAMP3 = CALCR-RAMP3 (Homo sapiens, UniProt O60896+P30988); experiment: gpcrMAX PathHunter beta-arrestin
# CRTH2 = CRTH2 (Homo sapiens, UniProt Q9Y5Y4); experiment: gpcrMAX PathHunter beta-arrestin
# Sequence of CRTH2 (Q9Y5Y4 whole entry): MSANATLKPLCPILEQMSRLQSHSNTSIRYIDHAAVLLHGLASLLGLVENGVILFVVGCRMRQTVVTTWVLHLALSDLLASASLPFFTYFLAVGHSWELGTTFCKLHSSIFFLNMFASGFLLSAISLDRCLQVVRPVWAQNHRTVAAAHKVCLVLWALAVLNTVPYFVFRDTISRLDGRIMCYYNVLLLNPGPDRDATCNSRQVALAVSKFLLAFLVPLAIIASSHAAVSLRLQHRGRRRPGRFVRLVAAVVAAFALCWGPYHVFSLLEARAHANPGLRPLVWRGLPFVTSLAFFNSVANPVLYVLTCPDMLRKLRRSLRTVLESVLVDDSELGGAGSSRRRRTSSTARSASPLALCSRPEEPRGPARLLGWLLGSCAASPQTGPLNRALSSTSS
# CMKLR1 = CMKLR1 (Homo sapiens, UniProt Q99788); experiment: gpcrMAX PathHunter beta-arrestin
# ME:SK-MEL-28 = test system: ME:SK-MEL-28; set-up: method as in earlier work; settings: NCI-60 panel; ref [4],[5],[6],[7]; cited from earlier work
# VIPR2 = VIPR2 (Homo sapiens, UniProt P41587); experiment: gpcrMAX PathHunter beta-arrestin
# ME:MDA-MB-435 = test system: ME:MDA-MB-435; set-up: method as in earlier work; settings: NCI-60 panel; ref [4],[5],[6],[7]; cited from earlier work
# P2RY4 = P2RY4 (Homo sapiens, UniProt P51582); experiment: gpcrMAX PathHunter beta-arrestin
# LC:NCI-H522 = test system: LC:NCI-H522; set-up: method as in earlier work; settings: NCI-60 panel; ref [4],[5],[6],[7]; cited from earlier work
# NPBWR2 = NPBWR2 (Homo sapiens, UniProt P48146); experiment: gpcrMAX PathHunter beta-arrestin
# Sequence of NPBWR2 (P48146 whole entry): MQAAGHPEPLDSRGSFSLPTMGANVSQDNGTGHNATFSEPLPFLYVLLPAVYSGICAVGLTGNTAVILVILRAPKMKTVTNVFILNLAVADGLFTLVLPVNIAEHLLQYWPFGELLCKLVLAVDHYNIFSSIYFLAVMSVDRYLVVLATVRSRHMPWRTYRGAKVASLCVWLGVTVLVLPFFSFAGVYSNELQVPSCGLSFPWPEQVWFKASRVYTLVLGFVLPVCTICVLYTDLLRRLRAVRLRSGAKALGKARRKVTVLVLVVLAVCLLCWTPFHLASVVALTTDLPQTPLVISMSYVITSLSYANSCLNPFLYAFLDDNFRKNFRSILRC
# HRH2 = HRH2 (Homo sapiens, UniProt P25021); experiment: gpcrMAX PathHunter beta-arrestin
# Sequence of HRH2 (P25021 whole entry): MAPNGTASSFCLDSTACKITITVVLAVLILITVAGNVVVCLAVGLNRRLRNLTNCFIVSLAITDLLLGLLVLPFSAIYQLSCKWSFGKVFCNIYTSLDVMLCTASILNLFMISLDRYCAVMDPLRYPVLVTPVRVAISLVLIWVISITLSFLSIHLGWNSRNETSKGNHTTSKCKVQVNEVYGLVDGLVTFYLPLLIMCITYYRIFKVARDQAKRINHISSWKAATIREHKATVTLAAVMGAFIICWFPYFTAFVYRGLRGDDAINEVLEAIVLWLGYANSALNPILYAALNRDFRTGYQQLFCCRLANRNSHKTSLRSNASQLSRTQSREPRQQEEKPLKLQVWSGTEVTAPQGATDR
# OV:OVCAR-5 = test system: OV:OVCAR-5; set-up: method as in earlier work; settings: NCI-60 panel; ref [4],[5],[6],[7]; cited from earlier work
# CXCR2 = CXCR2 (Homo sapiens, UniProt P25025); experiment: gpcrMAX PathHunter beta-arrestin
# Sequence of CXCR2 (P25025 whole entry): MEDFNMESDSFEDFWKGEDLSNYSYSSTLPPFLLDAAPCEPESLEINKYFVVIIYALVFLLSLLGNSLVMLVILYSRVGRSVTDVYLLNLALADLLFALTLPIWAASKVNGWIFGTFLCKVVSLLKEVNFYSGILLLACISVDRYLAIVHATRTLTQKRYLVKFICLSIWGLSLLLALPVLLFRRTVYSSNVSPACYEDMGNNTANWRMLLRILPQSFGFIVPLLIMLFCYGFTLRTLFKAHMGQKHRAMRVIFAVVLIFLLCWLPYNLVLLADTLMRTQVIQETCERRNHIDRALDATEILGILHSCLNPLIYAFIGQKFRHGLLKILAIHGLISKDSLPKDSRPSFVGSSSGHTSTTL
# ADCYAP1R1 = ADCYAP1R1 (Homo sapiens, UniProt P41586); experiment: gpcrMAX PathHunter beta-arrestin
# UTR2 = UTR2 (Homo sapiens, UniProt Q9UKP6); experiment: gpcrMAX PathHunter beta-arrestin
# Sequence of UTR2 (Q9UKP6 whole entry): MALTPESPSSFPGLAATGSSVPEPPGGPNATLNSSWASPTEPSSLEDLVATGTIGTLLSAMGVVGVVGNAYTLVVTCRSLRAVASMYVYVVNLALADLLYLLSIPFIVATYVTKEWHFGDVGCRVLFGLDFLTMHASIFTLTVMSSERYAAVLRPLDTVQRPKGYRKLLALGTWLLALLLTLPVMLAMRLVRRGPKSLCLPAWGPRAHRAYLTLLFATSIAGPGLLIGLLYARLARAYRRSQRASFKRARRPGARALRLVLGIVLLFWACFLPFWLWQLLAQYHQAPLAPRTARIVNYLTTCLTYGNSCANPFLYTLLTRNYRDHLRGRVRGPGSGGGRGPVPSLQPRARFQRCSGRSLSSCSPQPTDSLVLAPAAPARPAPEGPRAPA
# ME:SK-MEL-2 = test system: ME:SK-MEL-2; set-up: method as in earlier work; settings: NCI-60 panel; ref [4],[5],[6],[7]; cited from earlier work
# CXCR1 = CXCR1 (Homo sapiens, UniProt P25024); experiment: gpcrMAX PathHunter beta-arrestin
# GLP1R = GLP1R (Homo sapiens, UniProt P43220); experiment: gpcrMAX PathHunter beta-arrestin
# Sequence of GLP1R (P43220 24-463): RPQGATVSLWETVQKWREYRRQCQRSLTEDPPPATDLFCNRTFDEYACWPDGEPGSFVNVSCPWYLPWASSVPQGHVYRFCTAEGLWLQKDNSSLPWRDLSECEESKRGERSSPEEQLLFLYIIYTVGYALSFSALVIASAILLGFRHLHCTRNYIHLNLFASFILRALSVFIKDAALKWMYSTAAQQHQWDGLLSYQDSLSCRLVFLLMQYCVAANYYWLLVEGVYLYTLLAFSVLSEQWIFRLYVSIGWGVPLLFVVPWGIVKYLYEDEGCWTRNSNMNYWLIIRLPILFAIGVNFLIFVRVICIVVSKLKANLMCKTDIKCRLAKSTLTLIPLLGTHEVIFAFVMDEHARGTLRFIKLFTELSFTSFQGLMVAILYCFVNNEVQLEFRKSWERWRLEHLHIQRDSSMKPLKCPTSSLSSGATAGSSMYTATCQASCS
# ME:UACC-62 = test system: ME:UACC-62; set-up: method as in earlier work; settings: NCI-60 panel; ref [4],[5],[6],[7]; cited from earlier work
# PR:PC-3 = test system: PR:PC-3; set-up: method as in earlier work; settings: NCI-60 panel; ref [4],[5],[6],[7]; cited from earlier work
# OPRL1 = OPRL1 (Homo sapiens, UniProt P41146); experiment: gpcrMAX PathHunter beta-arrestin
# TBXA2R = TBXA2R (Homo sapiens, UniProt P21731); experiment: gpcrMAX PathHunter beta-arrestin
# MCHR1 = MCHR1 (Homo sapiens, UniProt Q99705); experiment: gpcrMAX PathHunter beta-arrestin
# P2RY2 = P2RY2 (Homo sapiens, UniProt P41231); experiment: gpcrMAX PathHunter beta-arrestin
# LC:A549/ATCC = test system: LC:A549/ATCC; set-up: method as in earlier work; settings: NCI-60 panel; ref [4],[5],[6],[7]; cited from earlier work
# CCR9 = CCR9 (Homo sapiens, UniProt P51686); experiment: gpcrMAX PathHunter beta-arrestin
# BR:MCF7 = test system: BR:MCF7; set-up: method as in earlier work; settings: NCI-60 panel; ref [4],[5],[6],[7]; cited from earlier work
# HTR1A = HTR1A (Homo sapiens, UniProt P08908); experiment: gpcrMAX PathHunter beta-arrestin
# Sequence of HTR1A (P08908 whole entry): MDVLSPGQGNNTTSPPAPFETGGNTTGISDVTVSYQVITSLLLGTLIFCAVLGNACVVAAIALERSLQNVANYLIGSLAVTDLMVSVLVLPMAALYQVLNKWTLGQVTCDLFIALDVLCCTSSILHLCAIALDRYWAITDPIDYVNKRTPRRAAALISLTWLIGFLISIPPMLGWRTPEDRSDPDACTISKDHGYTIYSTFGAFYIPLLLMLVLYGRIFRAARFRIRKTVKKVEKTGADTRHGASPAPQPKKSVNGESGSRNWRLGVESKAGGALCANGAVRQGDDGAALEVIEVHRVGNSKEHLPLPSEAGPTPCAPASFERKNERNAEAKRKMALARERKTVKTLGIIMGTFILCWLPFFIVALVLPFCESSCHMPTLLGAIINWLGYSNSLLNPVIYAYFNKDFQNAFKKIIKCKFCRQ
# CNS:SF-539 = test system: CNS:SF-539; set-up: method as in earlier work; settings: NCI-60 panel; ref [4],[5],[6],[7]; cited from earlier work
# PPYR1 = PPYR1 (Homo sapiens, UniProt P50391); experiment: gpcrMAX PathHunter beta-arrestin
# Sequence of PPYR1 (P50391 whole entry): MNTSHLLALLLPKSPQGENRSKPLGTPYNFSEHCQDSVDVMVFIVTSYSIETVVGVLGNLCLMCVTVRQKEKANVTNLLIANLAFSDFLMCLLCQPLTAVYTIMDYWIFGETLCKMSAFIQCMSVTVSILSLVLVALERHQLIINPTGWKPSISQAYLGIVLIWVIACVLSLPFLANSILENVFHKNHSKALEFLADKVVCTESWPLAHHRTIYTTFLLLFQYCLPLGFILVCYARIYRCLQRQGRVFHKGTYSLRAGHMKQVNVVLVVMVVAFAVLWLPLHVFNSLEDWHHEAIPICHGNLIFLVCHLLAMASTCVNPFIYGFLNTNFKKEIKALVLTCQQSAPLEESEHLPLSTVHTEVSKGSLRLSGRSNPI
# SCTR = SCTR (Homo sapiens, UniProt P47872); experiment: gpcrMAX PathHunter beta-arrestin
# Sequence of SCTR (P47872 23-440): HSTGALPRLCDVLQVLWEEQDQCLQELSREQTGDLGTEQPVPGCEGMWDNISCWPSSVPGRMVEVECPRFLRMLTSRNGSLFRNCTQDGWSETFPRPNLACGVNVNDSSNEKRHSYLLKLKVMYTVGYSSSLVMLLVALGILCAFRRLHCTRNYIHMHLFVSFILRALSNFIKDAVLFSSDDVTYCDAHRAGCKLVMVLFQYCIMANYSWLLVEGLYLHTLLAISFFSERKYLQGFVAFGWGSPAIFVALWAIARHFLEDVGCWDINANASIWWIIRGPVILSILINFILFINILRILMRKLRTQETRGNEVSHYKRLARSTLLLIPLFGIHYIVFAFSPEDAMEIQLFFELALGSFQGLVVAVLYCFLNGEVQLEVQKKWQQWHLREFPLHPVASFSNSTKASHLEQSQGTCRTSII
# ADORA3 = ADORA3 (Homo sapiens, UniProt P0DMS8); experiment: gpcrMAX PathHunter beta-arrestin
# Sequence of ADORA3 (P0DMS8 whole entry): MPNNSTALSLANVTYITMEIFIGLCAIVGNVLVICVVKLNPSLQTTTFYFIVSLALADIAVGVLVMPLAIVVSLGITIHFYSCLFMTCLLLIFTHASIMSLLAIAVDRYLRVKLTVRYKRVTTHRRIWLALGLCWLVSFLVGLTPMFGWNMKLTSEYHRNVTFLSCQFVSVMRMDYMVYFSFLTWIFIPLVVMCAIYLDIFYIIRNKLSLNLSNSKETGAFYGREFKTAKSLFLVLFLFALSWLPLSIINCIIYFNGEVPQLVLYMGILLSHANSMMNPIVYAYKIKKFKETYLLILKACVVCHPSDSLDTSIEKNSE
# CALCR-RAMP2 = CALCR-RAMP2 (Homo sapiens, UniProt O60895+P30988); experiment: gpcrMAX PathHunter beta-arrestin
# SSTR5 = SSTR5 (Homo sapiens, UniProt P35346); experiment: gpcrMAX PathHunter beta-arrestin
# HRH3 = HRH3 (Homo sapiens, UniProt Q9Y5N1); experiment: gpcrMAX PathHunter beta-arrestin
# Sequence of HTR1E (P28566 whole entry): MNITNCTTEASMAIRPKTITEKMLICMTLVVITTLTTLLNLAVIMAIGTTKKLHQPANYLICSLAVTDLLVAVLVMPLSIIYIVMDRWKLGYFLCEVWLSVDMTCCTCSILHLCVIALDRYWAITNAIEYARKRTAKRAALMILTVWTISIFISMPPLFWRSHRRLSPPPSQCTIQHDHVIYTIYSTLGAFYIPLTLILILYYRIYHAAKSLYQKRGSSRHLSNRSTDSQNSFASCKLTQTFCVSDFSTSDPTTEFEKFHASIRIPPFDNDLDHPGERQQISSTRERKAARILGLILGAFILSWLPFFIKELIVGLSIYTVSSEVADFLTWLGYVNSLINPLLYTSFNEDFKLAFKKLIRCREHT
# Sequence of GPR92 (Q9H1C0 whole entry): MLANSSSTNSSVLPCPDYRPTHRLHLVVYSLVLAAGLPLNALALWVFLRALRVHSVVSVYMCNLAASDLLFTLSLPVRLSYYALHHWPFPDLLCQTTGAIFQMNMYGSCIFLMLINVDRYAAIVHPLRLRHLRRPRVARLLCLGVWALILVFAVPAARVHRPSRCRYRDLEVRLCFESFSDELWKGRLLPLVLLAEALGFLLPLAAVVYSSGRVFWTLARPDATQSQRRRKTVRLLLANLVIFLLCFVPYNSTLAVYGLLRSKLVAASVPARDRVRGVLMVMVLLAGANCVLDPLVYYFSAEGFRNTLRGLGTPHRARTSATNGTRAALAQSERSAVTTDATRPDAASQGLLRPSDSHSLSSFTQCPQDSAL
smiles,measurement,setting,value
Cc1c(Cl)cccc1NC(=O)c1sc2nc3c(cc2c1N)C(=O)CCC3 [Compound 1],inhibition at 10 µM,GPR109A,-13%
same,inhibition at 10 µM,HTR1E,19%
same,inhibition at 10 µM,GPR92,-28%
same,inhibition at 10 µM,CCR6,-6%
same,GI50,CNS:SF-295,36.5 nM
same,inhibition at 10 µM,NPY2R,-9%
same,inhibition at 10 µM,CALCR-RAMP3,17%
same,inhibition at 10 µM,CRTH2,13%
same,inhibition at 10 µM,CMKLR1,14%
same,GI50,ME:SK-MEL-28,224 nM
same,inhibition at 10 µM,VIPR2,12%
same,GI50,ME:MDA-MB-435,18.7 nM
same,inhibition at 10 µM,P2RY4,-16%
same,GI50,LC:NCI-H522,22.9 nM
same,inhibition at 10 µM,NPBWR2,-5%
same,inhibition at 10 µM,HRH2,10%
same,GI50,OV:OVCAR-5,308 nM
same,inhibition at 10 µM,CXCR2,33%
same,inhibition at 10 µM,ADCYAP1R1,23%
same,inhibition at 10 µM,UTR2,10%
same,GI50,ME:SK-MEL-2,47.7 nM
same,inhibition at 10 µM,CXCR1,2%
same,inhibition at 10 µM,GLP1R,-1%
same,GI50,ME:UACC-62,50.3 nM
same,GI50,PR:PC-3,53.5 nM
same,inhibition at 10 µM,OPRL1,-7%
same,inhibition at 10 µM,TBXA2R,-1%
same,inhibition at 10 µM,MCHR1,-77%
same,inhibition at 10 µM,P2RY2,-14%
same,GI50,LC:A549/ATCC,63.1 nM
same,inhibition at 10 µM,CCR9,17%
same,GI50,BR:MCF7,46.4 nM
same,inhibition at 10 µM,HTR1A,3%
same,GI50,CNS:SF-539,38.2 nM
same,inhibition at 10 µM,PPYR1,-18%
same,inhibition at 10 µM,SCTR,13%
same,inhibition at 10 µM,ADORA3,25%
same,inhibition at 10 µM,CALCR-RAMP2,0%
same,inhibition at 10 µM,SSTR5,-3%
same,inhibition at 10 µM,HRH3,-14%
